Data taken from patent US9155752B2, “Liver function-improving agent” (UENO FINE CHEMICALS INDUSTRY, LTD., priority 2012, dated 2015).
Entries after “also recorded” stand apart in the source; their conditions may differ.

Test system: NASH mice
Assay: Sirius Red staining of liver, fibrosis area % (Test Example 3)
Format: in vivo
Settings: for Fibrosis area %, Significant difference: Bonferroni, 5% level, tendency at 10% level; for Fibrosis area % (Sirius Red staining), mean ± standard deviation: 8 weeks of age
Source text: A solid diet CE-2 (lipid 4.6% by weight, manufactured by CLEA Japan, Inc.) was used as a normal diet. A solid diet, High Fat Diet 32 (lipid 32.0% by weight, sucrose 6.75% by weight, manufactured by CLEA Japan, Inc.), was used as a sucrose-containing high fat diet. As a maltitol-containing high-fat diet, a special diet (lipid 32.0% by weight, maltitol 6.08% by weight; manufactured by CLEA Japan, Inc.) obtained by replacing the total amount (6.75% by weight) of sucrose in a solid diet, High Fat Diet 32, with powdered maltitol (Whole Crystalline Maltitol Ueno 60M (purity of maltitol: 90%), manufactured by Ueno Fine Chemicals Industry Ltd.) was used. Sodium hypochlorite (PURELOX-S, manufactured by OYALOX Co., Ltd.) was added to pure water prepared by Elix-UV pure water producing apparatus, to a final concentration of 0.00009%, so that pure water for use in the test was obtained. An aqueous maltitol solution was prepared by dissolving powdered maltitol (Whole Crystalline Maltitol Ueno 60M (purity of maltitol: 90%), manufactured by Ueno Fine Chemicals Industry Ltd.) in pure water to a concentration of 1.8% (weight/volume). The purity of maltitol in the aqueous maltitol solution was 1.62%. Twenty-one female SPF mice (C57BL/6J, produced by CLEA Japan, Inc.) on day 14 of pregnancy were purchased and acclimation was performed. All animals were allowed to make a natural birth and a born male was used to produce a model. In addition, the weaning was at 4 weeks after birth. Streptozotocin (Sigma-Aldrich Japan K.K.) was adjusted to a concentration of 10 mg/mL with a physiological saline solution (manufactured by Otsuka Pharmaceutical Factory, Inc.) and the solution was subcutaneously administered once to the back of 2-day-old male mice at a dose of 20 μL/mouse (200 μg/mouse). Afterwards, the mother animal took care of the baby until weaning. The weaning was on day 28±2 after birth. After the weaning, a normal diet was supplied ad libitum to animals receiving no streptozotocin (normal mice (group S1 and group 1)), and a sucrose-containing high fat diet was supplied ad libitum to animals receiving streptozotocin (NASH mice (group S2, group 2, group 3, and group 4). A normal diet was supplied ad libitum to normal mice (group 1). With respect to NASH mice, a sucrose-containing high fat diet was supplied ad libitum to the sucrose group (group 2), and a maltitol-containing high fat diet was supplied ad libitum to the maltitol-low dose group (group 3) and the maltitol-high dose group (group 4). An aqueous maltitol solution was supplied ad libitum only to the maltitol-high dose group (group 4) of 5 to 8 weeks of age, and pure water was supplied ad libitum to the groups other than group 4 of 5 to 8 weeks of age. Six male animals per group were assigned to groups S1 and S2, reared up to 5 weeks of age, and then necropsied. Eight male animals per group were assigned to groups 1, 2, 3 and 4, reared up to 8 weeks of age, and then necropsied. At scheduled necropsy of the animals of 5 or 8 weeks of age, all individuals were anesthetized with diethyl ether (manufactured by Sigma-Aldrich Japan K.K.) and a needle through which heparin sodium (Novo Heparin Injection 1000, manufactured by Mochida Pharmaceutical Co., Ltd.) had been passed was punctured to the heart to aspirate the whole blood, leading to euthanasia, followed by harvest of the organ. […]

Row | SMILES | Fibrosis area %, Significant difference (Group 3 (low-dose maltitol) vs sucrose group (group 2)) | Fibrosis area % (Sirius Red staining), mean ± standard deviation (Group 3, low-dose maltitol: HFD32-M (maltitol 6.08%) + pure water) [%] | Fibrosis area %, Significant difference (Group 4 (high-dose maltitol) vs sucrose group (group 2)) | Fibrosis area % (Sirius Red staining), mean ± standard deviation (Group 4, high-dose maltitol: HFD32-M (maltitol 6.08%) + aqueous maltitol solution 1.62%) [%] | Fibrosis area % (Sirius Red staining), mean ± standard deviation (Group 2, sucrose group: HFD32 (sucrose 6.75%) + pure water) [%]
1 | OC[C@@H](O)[C@@H](O[C@H]1O[C@H](CO)[C@@H](O)[C@H](O)[C@H]1O)[C@H](O)[C@@H](O)CO [maltitol] | tendency to be low; also recorded: Tendency to be different | 0.89 ± 0.15 | tendency to be low; also recorded: Tendency to be different | 0.86 ± 0.27 | –
2 | OC[C@H]1O[C@@](CO)(O[C@H]2O[C@H](CO)[C@@H](O)[C@H](O)[C@H]2O)[C@@H](O)[C@@H]1O [sucrose, reference compound] | – | – | – | – | 1.09 ± 0.23
